Experiments:
Assay in all cases: KINOMEscan competitive binding, whole panel
panel of 203 kinases [1] = target: T1, panel of 203 kinases (Homo sapiens, UniProt P06213); settings: 10 µM, n=1; kinase INSR; read-out: Percent inhibition INSR
T1 construct: purchased DiscoverX (KINOMEscan)
Outline: (§1)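 This competitive binding format measures displacement of T7 phage-tagged kinases from an immobilized ATP-site ligand by the test compound; values are percentage inhibition.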

panel of 203 kinases [2] = target: T2, panel of 203 kinases (Homo sapiens, UniProt P06239); settings: 10 µM, n=1; kinase LCK; read-out: Percent inhibition LCK
T2 construct: purchased DiscoverX (KINOMEscan)
T2 sequence (P06239 whole entry): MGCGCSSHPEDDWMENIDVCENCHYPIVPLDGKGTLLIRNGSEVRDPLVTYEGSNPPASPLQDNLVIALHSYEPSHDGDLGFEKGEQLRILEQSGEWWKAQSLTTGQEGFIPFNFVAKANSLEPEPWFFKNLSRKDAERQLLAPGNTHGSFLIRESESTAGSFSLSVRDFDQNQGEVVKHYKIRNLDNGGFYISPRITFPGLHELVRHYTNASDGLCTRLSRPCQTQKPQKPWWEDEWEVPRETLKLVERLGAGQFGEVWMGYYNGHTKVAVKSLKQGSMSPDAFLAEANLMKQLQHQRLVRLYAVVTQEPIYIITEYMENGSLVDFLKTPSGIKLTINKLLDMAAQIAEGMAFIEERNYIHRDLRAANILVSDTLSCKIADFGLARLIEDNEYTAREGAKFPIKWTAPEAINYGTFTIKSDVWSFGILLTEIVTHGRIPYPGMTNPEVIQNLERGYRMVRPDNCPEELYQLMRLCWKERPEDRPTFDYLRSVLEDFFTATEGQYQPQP
Outline: as §1

panel of 203 kinases [3] = target: T3, panel of 203 kinases (Homo sapiens, UniProt P07332); settings: 10 µM, n=1; kinase FES; read-out: Percent inhibition FES
T3 construct: purchased DiscoverX (KINOMEscan)
T3 sequence (P07332 whole entry): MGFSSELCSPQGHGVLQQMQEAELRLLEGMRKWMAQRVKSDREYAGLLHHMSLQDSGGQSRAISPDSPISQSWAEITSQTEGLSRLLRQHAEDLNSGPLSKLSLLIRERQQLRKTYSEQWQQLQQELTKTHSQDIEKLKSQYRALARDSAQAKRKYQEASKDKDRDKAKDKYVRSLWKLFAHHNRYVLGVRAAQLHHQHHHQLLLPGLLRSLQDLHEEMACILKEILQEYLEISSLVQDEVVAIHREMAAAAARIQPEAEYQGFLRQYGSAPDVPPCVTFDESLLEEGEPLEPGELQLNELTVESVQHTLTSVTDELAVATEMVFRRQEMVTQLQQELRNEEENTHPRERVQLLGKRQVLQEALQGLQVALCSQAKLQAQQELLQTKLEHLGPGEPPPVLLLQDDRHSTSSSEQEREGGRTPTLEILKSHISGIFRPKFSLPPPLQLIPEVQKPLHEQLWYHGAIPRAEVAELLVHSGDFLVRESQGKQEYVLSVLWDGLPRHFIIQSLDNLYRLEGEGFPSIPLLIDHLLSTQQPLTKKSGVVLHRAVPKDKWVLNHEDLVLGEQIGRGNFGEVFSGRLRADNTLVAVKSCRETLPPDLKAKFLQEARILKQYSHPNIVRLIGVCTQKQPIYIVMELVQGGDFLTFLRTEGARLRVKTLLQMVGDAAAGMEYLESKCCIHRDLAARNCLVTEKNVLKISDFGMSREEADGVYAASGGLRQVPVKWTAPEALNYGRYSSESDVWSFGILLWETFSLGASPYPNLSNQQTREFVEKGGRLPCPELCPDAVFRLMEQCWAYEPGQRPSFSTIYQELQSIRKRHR
Outline: as §1

panel of 203 kinases [4] = target: T4, panel of 203 kinases (Homo sapiens, UniProt P08631); settings: 10 µM, n=1; kinase HCK; read-out: Percent inhibition HCK
T4 construct: purchased DiscoverX (KINOMEscan)
Outline: as §1

panel of 203 kinases [5] = target: T5, panel of 203 kinases (Homo sapiens, UniProt P21802); settings: 10 µM, n=1; kinase FGFR2; read-out: Percent inhibition FGFR2
T5 construct: purchased DiscoverX (KINOMEscan)
Outline: as §1

panel of 203 kinases [6] = target: T6, panel of 203 kinases (Homo sapiens, UniProt P22455); settings: 10 µM, n=1; kinase FGFR4; read-out: Percent inhibition FGFR4
T6 construct: purchased DiscoverX (KINOMEscan)
T6 sequence (P22455 22-802): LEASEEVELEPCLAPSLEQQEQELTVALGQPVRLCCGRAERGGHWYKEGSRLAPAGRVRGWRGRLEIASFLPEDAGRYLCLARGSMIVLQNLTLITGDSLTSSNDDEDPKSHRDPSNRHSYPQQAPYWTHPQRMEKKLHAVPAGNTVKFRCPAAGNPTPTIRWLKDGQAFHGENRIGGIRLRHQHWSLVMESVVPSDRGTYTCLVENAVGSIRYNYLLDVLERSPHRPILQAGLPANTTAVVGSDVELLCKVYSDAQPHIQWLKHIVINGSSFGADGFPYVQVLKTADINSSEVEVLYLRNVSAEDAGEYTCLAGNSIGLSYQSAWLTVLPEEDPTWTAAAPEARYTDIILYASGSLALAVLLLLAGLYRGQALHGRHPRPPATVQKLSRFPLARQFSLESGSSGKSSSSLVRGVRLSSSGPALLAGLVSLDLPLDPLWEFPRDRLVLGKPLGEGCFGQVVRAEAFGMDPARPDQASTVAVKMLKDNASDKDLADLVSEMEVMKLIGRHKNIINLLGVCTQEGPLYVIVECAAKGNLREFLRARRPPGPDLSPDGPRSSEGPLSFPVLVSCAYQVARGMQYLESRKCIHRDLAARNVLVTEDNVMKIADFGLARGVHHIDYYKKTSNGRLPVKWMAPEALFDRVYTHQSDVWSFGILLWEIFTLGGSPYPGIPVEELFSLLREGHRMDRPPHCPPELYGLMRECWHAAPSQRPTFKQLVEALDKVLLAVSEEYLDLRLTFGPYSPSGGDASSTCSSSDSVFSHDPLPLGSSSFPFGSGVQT
Outline: as §1

panel of 203 kinases [7] = target: T7, panel of 203 kinases (Homo sapiens, UniProt P29317); settings: 10 µM, n=1; kinase EPHA2; read-out: Percent inhibition EPHA2
T7 construct: purchased DiscoverX (KINOMEscan)
Outline: as §1

panel of 203 kinases [8] = target: T8, panel of 203 kinases (Homo sapiens, UniProt P29376); settings: 10 µM, n=1; kinase LTK; read-out: Percent inhibition LTK
T8 construct: purchased DiscoverX (KINOMEscan)
Outline: as §1

panel of 203 kinases [9] = target: T9, panel of 203 kinases (Homo sapiens, UniProt P37023); settings: 10 µM, n=1; kinase ACVRL1; read-out: Percent inhibition ACVRL1
T9 construct: purchased DiscoverX (KINOMEscan)
Outline: as §1

panel of 203 kinases [10] = target: T10, panel of 203 kinases (Homo sapiens, UniProt Q13554); settings: 10 µM, n=1; kinase CAMK2B; read-out: Percent inhibition CAMK2B
T10 construct: purchased DiscoverX (KINOMEscan)
Outline: as §1

panel of 203 kinases [11] = target: T11, panel of 203 kinases (Homo sapiens, UniProt Q13557); settings: 10 µM, n=1; kinase CAMK2D; read-out: Percent inhibition CAMK2D
T11 construct: purchased DiscoverX (KINOMEscan)
T11 sequence (Q13557 whole entry): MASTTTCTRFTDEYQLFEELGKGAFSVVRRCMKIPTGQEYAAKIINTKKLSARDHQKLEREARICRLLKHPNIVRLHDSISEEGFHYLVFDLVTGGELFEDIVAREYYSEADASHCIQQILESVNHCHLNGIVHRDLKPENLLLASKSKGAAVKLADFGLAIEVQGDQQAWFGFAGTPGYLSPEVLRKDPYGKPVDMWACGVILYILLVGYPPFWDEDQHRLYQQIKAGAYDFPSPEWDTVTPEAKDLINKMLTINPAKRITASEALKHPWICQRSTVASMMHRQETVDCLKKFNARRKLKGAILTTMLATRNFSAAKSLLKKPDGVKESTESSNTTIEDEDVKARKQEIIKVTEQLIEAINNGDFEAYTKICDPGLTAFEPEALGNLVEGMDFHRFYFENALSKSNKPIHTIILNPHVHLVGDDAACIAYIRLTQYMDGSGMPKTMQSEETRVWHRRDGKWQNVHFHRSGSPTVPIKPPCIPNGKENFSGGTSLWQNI
Outline: as §1

panel of 203 kinases [12] = target: T12, panel of 203 kinases (Homo sapiens, UniProt Q15303); settings: 10 µM, n=1; kinase ERBB4; read-out: Percent inhibition ERBB4
T12 construct: purchased DiscoverX (KINOMEscan)
Outline: as §1

panel of 203 kinases [13] = target: T13, panel of 203 kinases (Homo sapiens, UniProt Q16584); settings: 10 µM, n=1; kinase MLK3; read-out: Percent inhibition MLK3
T13 construct: purchased DiscoverX (KINOMEscan)
T13 sequence (Q16584 whole entry): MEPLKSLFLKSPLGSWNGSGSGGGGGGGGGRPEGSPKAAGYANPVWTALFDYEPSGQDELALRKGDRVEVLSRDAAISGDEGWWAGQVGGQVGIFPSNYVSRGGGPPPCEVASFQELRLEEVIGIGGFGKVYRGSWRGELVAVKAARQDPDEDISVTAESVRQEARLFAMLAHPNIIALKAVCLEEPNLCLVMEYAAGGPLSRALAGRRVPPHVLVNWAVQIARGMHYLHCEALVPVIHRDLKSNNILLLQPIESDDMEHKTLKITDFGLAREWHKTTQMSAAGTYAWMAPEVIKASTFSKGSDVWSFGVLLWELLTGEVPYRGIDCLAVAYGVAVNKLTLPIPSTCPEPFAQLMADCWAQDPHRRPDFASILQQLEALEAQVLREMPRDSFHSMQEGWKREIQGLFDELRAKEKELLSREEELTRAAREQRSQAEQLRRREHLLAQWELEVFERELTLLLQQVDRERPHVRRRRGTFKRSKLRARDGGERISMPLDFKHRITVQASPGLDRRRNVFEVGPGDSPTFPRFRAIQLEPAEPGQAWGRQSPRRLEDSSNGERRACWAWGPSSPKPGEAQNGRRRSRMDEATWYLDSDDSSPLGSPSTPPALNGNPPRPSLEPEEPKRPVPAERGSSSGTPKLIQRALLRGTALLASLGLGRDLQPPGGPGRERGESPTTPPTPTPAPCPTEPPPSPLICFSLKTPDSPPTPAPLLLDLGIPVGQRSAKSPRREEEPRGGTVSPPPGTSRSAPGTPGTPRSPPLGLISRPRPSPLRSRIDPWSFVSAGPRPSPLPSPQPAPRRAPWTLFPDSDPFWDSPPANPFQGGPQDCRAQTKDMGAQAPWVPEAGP
Outline: as §1

panel of 203 kinases [14] = target: T14, panel of 203 kinases (Homo sapiens, UniProt Q7KZI7); settings: 10 µM, n=1; kinase MARK2; read-out: Percent inhibition MARK2
T14 construct: purchased DiscoverX (KINOMEscan)
T14 sequence (Q7KZI7 whole entry): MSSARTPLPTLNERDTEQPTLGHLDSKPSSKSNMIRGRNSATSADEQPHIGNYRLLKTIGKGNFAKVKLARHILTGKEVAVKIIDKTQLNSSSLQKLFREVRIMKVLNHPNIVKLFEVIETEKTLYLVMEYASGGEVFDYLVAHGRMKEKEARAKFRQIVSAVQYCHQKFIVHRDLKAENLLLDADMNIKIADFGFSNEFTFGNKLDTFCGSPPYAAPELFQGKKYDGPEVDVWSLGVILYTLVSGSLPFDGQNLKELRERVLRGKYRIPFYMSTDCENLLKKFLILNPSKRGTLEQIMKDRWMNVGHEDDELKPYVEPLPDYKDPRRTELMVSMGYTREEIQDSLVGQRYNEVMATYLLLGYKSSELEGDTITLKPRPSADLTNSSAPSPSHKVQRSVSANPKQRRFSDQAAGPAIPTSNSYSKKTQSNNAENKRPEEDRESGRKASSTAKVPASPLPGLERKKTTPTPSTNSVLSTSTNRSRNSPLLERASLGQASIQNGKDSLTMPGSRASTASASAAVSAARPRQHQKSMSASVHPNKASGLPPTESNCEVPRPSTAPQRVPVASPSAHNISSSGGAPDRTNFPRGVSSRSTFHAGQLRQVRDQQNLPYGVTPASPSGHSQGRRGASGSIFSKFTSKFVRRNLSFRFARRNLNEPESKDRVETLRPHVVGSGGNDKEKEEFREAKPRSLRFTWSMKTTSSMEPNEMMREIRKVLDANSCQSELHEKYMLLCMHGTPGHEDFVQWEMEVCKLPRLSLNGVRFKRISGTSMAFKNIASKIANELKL
Outline: as §1

panel of 203 kinases [15] = target: T15, panel of 203 kinases (Homo sapiens, UniProt Q8IVH8); settings: 10 µM, n=1; kinase MAP4K3; read-out: Percent inhibition MAP4K3
T15 construct: purchased DiscoverX (KINOMEscan)
T15 sequence (Q8IVH8 1-894): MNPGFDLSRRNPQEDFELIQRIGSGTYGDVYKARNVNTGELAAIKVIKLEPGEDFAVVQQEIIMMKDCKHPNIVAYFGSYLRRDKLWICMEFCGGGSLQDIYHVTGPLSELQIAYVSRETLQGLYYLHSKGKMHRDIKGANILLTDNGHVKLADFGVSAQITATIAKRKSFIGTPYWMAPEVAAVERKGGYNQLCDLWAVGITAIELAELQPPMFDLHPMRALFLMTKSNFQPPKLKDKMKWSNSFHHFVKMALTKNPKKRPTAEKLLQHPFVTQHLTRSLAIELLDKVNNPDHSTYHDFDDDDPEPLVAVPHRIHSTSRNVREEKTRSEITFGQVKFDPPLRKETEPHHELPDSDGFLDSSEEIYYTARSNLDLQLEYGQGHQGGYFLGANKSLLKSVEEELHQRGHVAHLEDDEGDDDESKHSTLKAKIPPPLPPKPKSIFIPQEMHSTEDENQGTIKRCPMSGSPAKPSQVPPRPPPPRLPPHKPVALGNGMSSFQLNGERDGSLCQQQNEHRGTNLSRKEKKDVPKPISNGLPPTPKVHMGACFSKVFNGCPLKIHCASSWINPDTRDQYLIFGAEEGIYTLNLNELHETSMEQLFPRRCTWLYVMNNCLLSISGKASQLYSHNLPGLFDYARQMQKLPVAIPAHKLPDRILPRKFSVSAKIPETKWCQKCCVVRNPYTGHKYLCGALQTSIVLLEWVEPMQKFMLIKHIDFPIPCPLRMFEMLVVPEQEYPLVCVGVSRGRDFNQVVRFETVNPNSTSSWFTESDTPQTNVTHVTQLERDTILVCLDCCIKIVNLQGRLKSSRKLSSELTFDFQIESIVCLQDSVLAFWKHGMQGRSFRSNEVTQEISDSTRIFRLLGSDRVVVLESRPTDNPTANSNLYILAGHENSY
Outline: as §1

panel of 203 kinases [16] = target: T16, panel of 203 kinases (Homo sapiens, UniProt Q96RR4); settings: 10 µM, n=1; kinase CAMKK2; read-out: Percent inhibition CAMKK2
T16 construct: purchased DiscoverX (KINOMEscan)
Outline: as §1

panel of 203 kinases [17] = target: T17, panel of 203 kinases (Homo sapiens, UniProt Q9HBH9); settings: 10 µM, n=1; kinase MKNK2; read-out: Percent inhibition MKNK2
T17 construct: purchased DiscoverX (KINOMEscan)
T17 sequence (Q9HBH9 whole entry): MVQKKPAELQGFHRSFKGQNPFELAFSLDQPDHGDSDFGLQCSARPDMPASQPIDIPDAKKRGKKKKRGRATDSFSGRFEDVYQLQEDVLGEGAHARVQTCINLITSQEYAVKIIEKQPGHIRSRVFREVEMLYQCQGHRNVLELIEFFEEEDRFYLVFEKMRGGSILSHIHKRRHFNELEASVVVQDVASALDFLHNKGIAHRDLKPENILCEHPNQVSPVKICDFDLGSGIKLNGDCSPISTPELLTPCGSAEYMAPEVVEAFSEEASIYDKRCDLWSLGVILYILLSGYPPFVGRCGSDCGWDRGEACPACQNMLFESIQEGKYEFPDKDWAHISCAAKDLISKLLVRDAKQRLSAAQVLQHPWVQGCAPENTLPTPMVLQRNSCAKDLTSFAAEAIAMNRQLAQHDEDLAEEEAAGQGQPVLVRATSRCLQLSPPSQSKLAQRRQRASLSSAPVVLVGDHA
Outline: as §1

panel of 203 kinases [18] = target: T18, panel of 203 kinases (Homo sapiens, UniProt Q9P289); settings: 10 µM, n=1; kinase MST4; read-out: Percent inhibition MST4
T18 construct: purchased DiscoverX (KINOMEscan)
Outline: as §1

panel of 203 kinases [19] = target: T19, panel of 203 kinases (Homo sapiens, UniProt Q9P2K8, S808G); settings: 10 µM, n=1; kinase GCN2(Kin.Dom.2,S808G); read-out: Percent inhibition GCN2(Kin.Dom.2,S808G)
T19 construct: purchased DiscoverX (KINOMEscan)
Outline: as §1

| SMILES | inhibition at 10 µM (panel of 203 kinases [1]) | inhibition at 10 µM (panel of 203 kinases [2]) | inhibition at 10 µM (panel of 203 kinases [3]) | inhibition at 10 µM (panel of 203 kinases [4]) | inhibition at 10 µM (panel of 203 kinases [5]) | inhibition at 10 µM (panel of 203 kinases [6]) | inhibition at 10 µM (panel of 203 kinases [7]) | inhibition at 10 µM (panel of 203 kinases [8]) | inhibition at 10 µM (panel of 203 kinases [9]) | inhibition at 10 µM (panel of 203 kinases [10]) | inhibition at 10 µM (panel of 203 kinases [11]) | inhibition at 10 µM (panel of 203 kinases [12]) | inhibition at 10 µM (panel of 203 kinases [13]) | inhibition at 10 µM (panel of 203 kinases [14]) | inhibition at 10 µM (panel of 203 kinases [15]) | inhibition at 10 µM (panel of 203 kinases [16]) | inhibition at 10 µM (panel of 203 kinases [17]) | inhibition at 10 µM (panel of 203 kinases [18]) | inhibition at 10 µM (panel of 203 kinases [19]) |
| --- | --- | --- | --- | --- | --- | --- | --- | --- | --- | --- | --- | --- | --- | --- | --- | --- | --- | --- | --- |
| CN1CCN(c2ccc(Nc3nccc(-c4cnn5ncccc45)n3)cc2C#N)CC1 [Compound 1] | 94.3% | 97.6% | 66.7% | 0% | 70.1% | 0% | 0% | 0% | 85% | 96.5% | 96.5% | 0% | 0% | 92% | 97% | 98% | 97% | 92.8% | 99.7% |
| COc1ccc(Nc2nccc(-c3cnn4ncccc34)n2)cc1 [Compound 2] | 76.9% | 0% | 84.9% | 0% | 0% | 0% | 0% | 80.8% | 0% | 73.9% | 79.5% | 0% | 75.5% | 0% | 79.3% | 96.3% | 99.4% | 0% | 98.2% |
| Cc1ccc(O)cc1Nc1ccnc(Nc2cccc(C(N)=O)c2)n1 [Compound 3] | 0% | 99.6% | 96.7% | 99.8% | 0% | 82.4% | 99.9% | 0% | 99.7% | 0% | 0% | 90.9% | 69.4% | 0% | 80.2% | 0% | 83.9% | 0% | 0% |
| Cc1ccc(O)cc1N(C)c1ccnc(Nc2cccc(S(N)(=O)=O)c2)n1 [Compound 4] | 0% | 99.8% | 100% | 99.8% | 0% | 0% | 99.5% | 69.7% | 100% | 0% | 0% | 87.3% | 81% | 66% | 98.5% | 0% | 99.3% | 0% | 0% |
| Fc1cccc(COc2ccc(Nc3ncnc4c3CN(CCN3CCOCC3)CC4)cc2Cl)c1 [Compound 6] | 0% | 0% | 0% | 0% | 0% | 0% | 0% | 0% | 0% | 0% | 0% | 0% | 0% | 0% | 0% | 0% | 0% | 0% | 0% |
| COc1cc(Nc2nccc(-c3sc(N)nc3-c3cccc(NC(=O)c4c(F)cccc4F)c3)n2)cc(OC)c1OC [Compound 7] | 97.3% | 99.5% | 99.8% | 99.7% | 100% | 100% | 99.4% | 0% | 0% | 0% | 0% | 100% | 99.8% | 73.7% | 99.7% | 0% | 100% | 89.2% | 99.9% |
| C[C@@H](Oc1cc(-c2cnc3ccccn23)sc1C(N)=O)c1ccccc1Cl [Compound 8] | 0% | 0% | 0% | 0% | 0% | 0% | 0% | 0% | 0% | 0% | 0% | 0% | 0% | 0% | 0% | 81.2% | 0% | 0% | 86.6% |
| c1ccc(COc2cccc(-c3ccnc4[nH]ccc34)c2)cc1 [Compound 9] | 0% | 0% | 0% | 0% | 0% | 0% | 0% | 0% | 0% | 0% | 0% | 0% | 0% | 0% | 0% | 0% | 0% | 0% | 0% |
| Clc1ccc(Nc2ncc(-c3ccccc3)s2)cc1 [Compound 10] | 0% | 0% | 0% | 0% | 0% | 0% | 0% | 0% | 0% | 0% | 0% | 0% | 0% | 0% | 0% | 0% | 65.7% | 0% | 0% |
